Results from article PMC6691788, “Design and synthesis of phthalazine-based compounds as potent anticancer agents with potential antiangiogenic activity via VEGFR-2 inhibition” (Journal of Enzyme Inhibition and Medicinal Chemistry, 2019).

Assays:
Assay in all cases: NCI 60 cell panel SRB screen
Assay type in all cases: cell-based
SF-268 = conditions: Homo sapiens; for activity at 10 µM: SF-268, single dose 10 μM, read-out: percent cell growth promotion; for GI50 / IC (TGI) / CC50: SF-268, 5 log dose; for CC50: 48 h, read-out: LC50 (the source's name)
MDA-MB-468 = conditions: Homo sapiens; for activity at 10 µM: MDA-MB-468, MDA-MBA-468, single dose 10 μM, read-out: percent cell growth promotion; for GI50 / IC (TGI) / CC50: MDA-MB-468, 5 log dose; for CC50: 48 h, read-out: LC50 (the source's name)
Procedure: The human tumor cell lines of the cancer-screening panel were grown in RPMI 1640 medium containing 5% fetal bovine serum and […] L-glutamine. For a typical screening experiment, cells are inoculated into 96 well microtiter plates in 100 ml at plating densities ranging from 5000 to 40,000 cells/well depending on the doubling time of individual cell lines. After cell inoculation, the microtiter plates are incubated at 37 °C, 5% CO2, 95% air and 100%
relative humidity for 24 h prior to addition of experimental drugs. After 24 h, two plates of each cell line are fixed in situ with TCA, to represent a measurement of the cell population for each cell line at the time of drug addition (Tz). Experimental drugs are dissolved in dimethyl sulfoxide at 400-fold the desired final maximum test concentration and stored frozen prior to use. At the time of drug addition, an aliquot of frozen concentrate is thawed and diluted to twice the desired final maximum test concentration with complete medium containing […] Gentamicin. Additional four, 10-fold or ½log serial dilutions are made to provide a total of five drug concentrations plus control. Aliquots of […] of these different drug dilutions are added to the appropriate microtiter wells already containing 100 ml of medium, resulting in the required final drug concentrations. Following drug addition, the plates are incubated for an additional 48 h at 37 °C, 5% CO2, 95% air, and 100% relative humidity. For adherent cells, the assay is terminated by the addition of cold TCA. Cells are fixed in situ by the gentle addition of […] of cold 50% (w/v) TCA (final concentration,10% TCA) and incubated for 60 min at 4 °C. The supernatant is discarded, and the plates are washed five times with tap water and air dried. Sulforhodamine B (SRB) solution (100 ml) at 0.4% (w/v) in 1% acetic acid is added to each well, and plates are incubated for 10 min at room temperature. After staining, unbound dye is removed by washing five times with 1% acetic acid and the plates are air dried. Bound stain is subsequently dissolved with 10 μM trizma base, and the absorbance is read on an automated plate reader at a wavelength of 515 nm. For suspension cells, the methodology is the same except that the assay is terminated by fixing settled cells at the bottom of the wells by gently adding […] of 80% TCA (final concentration, 16% TCA).
Using the seven absorbance measurements [time zero, (Tz), control growth, (C), and test growth in the presence of drug at the five concentration levels (Ti)], the percentage growth is calculated at each of the drug concentrations levels. Percentage growth inhibition is calculated as: [(Ti -Tz)/(C - Tz)] x 100 for concentrations for which Ti>/ ¼ Tz and [(Ti -Tz) / Tz] x100 for concentrations for which Ti <Tz.
Three dose response parameters are calculated for each experimental agent. Growth inhibition of 50% (GI50) is calculated from [(Ti -Tz)/(C - Tz)] x 100 =50, which is the drug concentration resulting in a 50% reduction in the net protein increase (as measured by SRB staining) in control cells during the drug incubation. The drug concentration resulting in total growth inhibition (TGI) is calculated from Ti ¼ Tz. The LC50 (concentration of drug resulting in a 50% reduction in the measured protein at the end of the drug treatment as compared to that at the beginning) indicating a net loss of cells following treatment is calculated from [(Ti - Tz) / Tz] x100 = -50. Values are calculated for each of these three parameters if the level of activity is reached; however, if the effect is not reached or is exceeded, the value for that parameter is expressed as greater or less than the maximum or minimum concentration tested.

MDA-MB-435 = conditions: Homo sapiens; for activity at 10 µM: MDA-MB-435, read-out: percent cell growth promotion; for GI50: MDA-MB-435; for IC (TGI): MDA-MB-435, read-out: TGI; for CC50: MDA-MB-435, 5 log dose, 48 h, read-out: LC50 (the source's name)

Row | SMILES | activity at 10 µM (SF-268) [%] | activity at 10 µM (MDA-MB-468) [%] | activity at 10 µM (MDA-MB-435) [%] | GI50 (SF-268) [µM] | IC (TGI) (SF-268) [µM] | CC50 (SF-268) [µM] | GI50 (MDA-MB-468) [µM] | IC (TGI) (MDA-MB-468) [µM] | CC50 (MDA-MB-468) [µM] | GI50 (MDA-MB-435) [µM] | IC (TGI) (MDA-MB-435) [µM] | CC50 (MDA-MB-435) [µM]
1 | O=C(Nc1ccc(Nc2nncc3ccccc23)cc1)c1ccc(Cl)cc1 [Compound 5b, 4-Chloro-N-(4-(phthalazin-1-ylamino)phenyl)benzamide] | 98 | 101 | 103 | – | – | – | – | – | – | – | – | –
2 | Cc1nnc(Nc2ccc(NC(=O)c3ccc(Cl)cc3)cc2)c2ccccc12 [Compound 5d, 4-Chloro-N-(4–(4-methylphthalazin-1-ylamino)phenyl)benzamide] | 90 | 104 | 102 | – | – | – | – | – | – | – | – | –
3 | O=C(Nc1ccc(Cl)cc1)Nc1ccc(Nc2nncc3ccccc23)cc1 [Compound 6b, 1–(4-Chlorophenyl)-3–(4-(phthalazin-1-ylamino)phenyl)urea] | 42.4 | 0.17 | 13.7 | 3.19 | 28.1 | > 100 | 2.57 | 9.47 | > 100 | 2.14 | 9.42 | 30.9
4 | Cc1nnc(Nc2ccc(NC(=O)Nc3ccc(Cl)cc3)cc2)c2ccccc12 [Compound 6e, 1–(4-Chlorophenyl)-3–(4-(4-methylphthalazin-1-ylamino)phenyl)urea] | 48.7 | 6.44 | -40 | 2.57 | 7.17 | 47 | 2.84 | 7.43 | 36.2 | 1.73 | 3.43 | 6.81
5 | O=C(Nc1ccc(Cl)cc1)Nc1ccc(Oc2nncc3ccccc23)cc1 [Compound 7b, 1–(4-Chlorophenyl)-3–(4-(phthalazin-1-yloxy)phenyl)urea] | 12.6 | -76.2 | -33.3 | 1.35 | 7.21 | 70.2 | 0.75 | 2.52 | 7.18 | 0.29 | 1.07 | 5.65
6 | Cc1nnc(Oc2ccc(NC(=O)Nc3ccc(Cl)cc3)cc2)c2ccccc12 [Compound 7e, 1–(4-Chlorophenyl)-3–(4-(4-methylphthalazin-1-yloxy)phenyl)urea] | 70.5 | 68.6 | 79.2 | – | – | – | – | – | – | – | – | –
7 | CCOC(=O)N1CCN(c2nncc3ccccc23)CC1 [Compound 8a, Ethyl 4-(phthalazin-1-yl)piperazine-1-carboxylate] | 104 | 97.7 | 105 | – | – | – | – | – | – | – | – | –
8 | c1ccc(N2CCN(c3nncc4ccccc34)CC2)nc1 [Compound 8d, 1–(4-(Pyridin-2-yl)piperazin-1-yl)phthalazine] | 103 | 93.3 | 104 | – | – | – | – | – | – | – | – | –
9 | CCOC(=O)N1CCN(c2nnc(C)c3ccccc23)CC1 [Compound 8f, Ethyl 4–(4-methylphthalazin-1-yl)piperazine-1-carboxylate] | 101 | 104 | 97.4 | – | – | – | – | – | – | – | – | –
10 | Cc1nnc(N2CCN(c3ccccc3)CC2)c2ccccc12 [Compound 8g, 1-Methyl-4–(4-phenylpiperazin-1-yl)phthalazine] | 108 | 98.8 | 99.5 | – | – | – | – | – | – | – | – | –
11 | Cc1nnc(N2CCN(c3ccccc3F)CC2)c2ccccc12 [Compound 8h, 1–(4-(2-Fluorophenyl)piperazin-1-yl)-4-methylphthalazine] | 110 | 84.8 | 93.5 | – | – | – | – | – | – | – | – | –
12 | Cc1nnc(N2CCN(c3ccccn3)CC2)c2ccccc12 [Compound 8i, 1-Methyl-4–(4-(pyridin-2-yl)piperazin-1-yl)phthalazine] | 106 | 87.4 | 99.6 | – | – | – | – | – | – | – | – | –
13 | O=C(Nc1ccccc1)Nc1ccc(Oc2nnc(Cl)c3ccccc23)cc1 [Compound 13a, 1–(4-(4-Chlorophthalazin-1-yloxy)phenyl)-3-phenylurea] | 25.9 | 0.47 | 48.6 | 2.89 | 7.57 | 19.8 | 7.58 | 7.56 | > 25 | 7.54 | > 25 | > 25
14 | O=C(Nc1ccc(Cl)cc1)Nc1ccc(Oc2nnc(Cl)c3ccccc23)cc1 [Compound 13b, 1–(4-Chlorophenyl)-3–(4-(4-chlorophthalazin-1-yloxy)phenyl)urea] | 85.8 | 84.9 | 93.9 | – | – | – | – | – | – | – | – | –
15 | Clc1ccc(Nc2nnc(CNc3ccccc3)c3ccccc23)cc1 [Compound 16a, N-(4-Chlorophenyl)-4-((phenylamino)methyl)phthalazin-1-amine] | 20.9 | -16.4 | 4.17 | 3.28 | 14.5 | > 25 | 1.9 | 11.5 | > 25 | 1.47 | 7.88 | > 25
16 | COc1cccc(NCc2nnc(Nc3ccc(Cl)cc3)c3ccccc23)c1 [Compound 16d, N-(4-Chlorophenyl)-4-((3-methoxyphenylamino)methyl)phthalazin-1-amine] | 2.52 | -21.9 | -10.3 | 2.05 | 10.5 | > 25 | 1.05 | 4.73 | 19.5 | 0.73 | 4.38 | 12
17 | Clc1ccc(Nc2nnc(COc3ccccc3)c3ccccc23)cc1 [Compound 17a, N-(4-Chlorophenyl)-4-(phenoxymethyl)phthalazin-1-amine] | 13.2 | -16.9 | -3.33 | 2.23 | 12.9 | > 25 | 1.49 | 7.62 | > 25 | 1.01 | 5.31 | 16.2
